Calls of active or inactive are those of the source.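 The calls were made as follows: active = compounds whose IC50 is 20 micromolar or lower, counted as confirmed SKN-1 reporter blockers; inactive = the rest.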
System: C. elegans VP596 Pgst-4::GFP/RFP ratio, acrylamide, 24 h
Experiment: inhibition of acrylamide-induced Pgst-4::GFP reporter, dose response, SKN-1 inhibitor project, whole organism, GFP/RFP fluorescence ratio, set 2, strain VP596 (AID 651563);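 also: red signal is driven by the dop-3 promoter and serves as the normalizer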

SMILES	IC50
CSc1cccc(NC(=O)c2cccc3cccnc23)c1	12.7 µM
CCCCOC(=O)Nc1ccc(N2CCCCC2)cc1	38.8 µM (inactive)
Fc1ccc(COc2ccc(-c3nnco3)cc2)c(Cl)c1	6.4 µM
COC(=O)c1c(-c2ccccc2)noc1-c1ccccc1	49.3 µM (inactive)
Cc1ccc(CSc2nnc(-c3ccco3)o2)cc1	23.8 µM (inactive)
Brc1ccc(CSc2nnc(-c3cccnc3)o2)cc1	29.1 µM (inactive)
N#Cc1cncc(C#Cc2ccccc2)c1	31 µM (inactive)
O=C(CC(O)(C(F)(F)F)C(F)(F)F)Nc1ccc(Cl)c(Cl)c1	27.9 µM (inactive)
C(=C\c1nc(-c2ccncc2)no1)/c1ccccc1	19.1 µM
Clc1ccccc1-c1nnc(-c2ccccc2Cl)o1	1.79 µM
CC1=NOC(=O)/C1=C/c1ccc(-c2ccc(Cl)cc2)o1	> 100 µM (inactive)
O=C(Oc1ccccc1)N1CCN(c2ccc(F)cc2)CC1	> 100 µM (inactive)
CCCCOc1ccc(C(=O)OC2CC(C)N(C)CC2C)cc1 (configuration not stated)	29.2 µM (inactive)
COc1ccc2c(c1OC)C(=O)OC2Nc1nc(-c2ccc(-c3ccccc3)cc2)cs1 (configuration not stated)	33.8 µM (inactive)
c1ccc(-c2csc(Nc3ccccn3)n2)cc1	16.8 µM
Cc1ccc(Nc2nc(-c3cccs3)cs2)nc1	30.2 µM (inactive)
Fc1ccc(COc2ccc(-c3nnco3)cc2)cc1	7.45 µM
Clc1ccc(Nc2nc(-c3cccs3)cs2)nc1	11.5 µM
Cc1cc(-c2nc3cc(F)ccc3s2)ccc1N	18.3 µM
Cc1oc(-c2ccc(-c3ccccc3)cc2)nc1CN(C)C1CCOC1 (configuration not stated)	20.6 µM (inactive)
COc1ccc(C(=O)Nc2nc(-c3cccs3)cs2)cc1	24.6 µM (inactive)
O=c1cc(-c2ccc(F)cc2)oc2ccccc12	19.2 µM
O=C(/C=C/c1ccccc1)Nc1ccc(CN2CCOCC2)cc1	19.3 µM

SMILES	IC50
CCOC(=O)c1c(-c2ccc(-c3ccccc3)cc2)csc1NC(=O)CNCCN(C)C	10.9 µM
Cc1ccc(-c2noc(-c3cccs3)n2)cc1	12.4 µM
Nc1ccc2c(Cl)cc(Cl)cc2c1	28.5 µM (inactive)
Brc1ccc(-c2nnc(-c3ccco3)o2)cc1	10.8 µM
CCN(CC)c1ccc(/C=C2\C(=O)c3ccc(C(=O)O)cc3C2=O)cc1	12.2 µM
CCCCOC(=O)Nc1ccc(C(C)C)cc1	76.2 µM (inactive)
Clc1ccc(C=Cc2ccccn2)c(Cl)c1	11.9 µM
O=C(Nc1nc2c(ccc3ccccc32)s1)c1ccco1	17.7 µM
O=C(Nc1ccc(CN2CCOCC2)cc1)c1cc2ccccc2o1	17.5 µM
O=[N+]([O-])c1ccc(Nc2ccccc2)cc1	12.2 µM
c1ccc(-c2ccc(-n3ccnc3)cc2)cc1	10.6 µM
O=C(/C=C/Nc1ccccc1F)c1cccs1	27.9 µM (inactive)
CCc1nc2c(OCc3ccc(C(F)(F)F)cc3)cccn2c1N(C)C(=O)c1ccncc1	3.57 µM
COc1ccc2c(c1)OC/C(=C/c1cccs1)C2=O	16.8 µM
O=C(Nc1nccs1)c1ccc2ccccc2n1	15.8 µM
O=[N+]([O-])c1ccc(OCc2cnc(Cl)s2)cc1	13.7 µM
O=C(NCc1ccncc1)c1ccc(-c2ccc(F)c(F)c2)c2ccoc12	29.8 µM (inactive)
Clc1ccc(-c2cc(CSc3ccccc3)on2)cc1	> 100 µM (inactive)
Fc1ccc(-c2csc(Nc3ccccn3)n2)cc1	7.01 µM
FCCCOc1ccc(-c2nccc(-c3ccccn3)n2)cc1	25.6 µM (inactive)
Clc1ccc(N2CCN(c3ccnc(Cl)n3)CC2)cc1	17.7 µM
O=C(Nc1ccc(-c2nnc(-c3ccccc3)o2)cc1)c1ccc(Br)o1	> 100 µM (inactive)
O=C(Nc1ccc(Cl)c(C(F)(F)F)c1)c1ccco1	64.4 µM (inactive)

SMILES	IC50
C(=C\c1ccc2ccccc2n1)/c1ccccc1	> 100 µM (inactive)
Clc1ccc(C#Cc2cccnc2)cc1	19.5 µM
CCCCCNC(=O)c1ccccc1SC	81.5 µM (inactive)
Clc1ccc(-c2nnc(-c3ccccc3)o2)c(Cl)c1	1.46 µM
CCN(CC)c1ccc(/C=C2/C(=O)c3ccc(C(=O)O)cc3C2=O)cc1	11.9 µM
Clc1ccc(OCCCc2nc(-c3ccncc3)no2)c(Cl)c1	29.5 µM (inactive)
Clc1ccc(-c2nc(-c3ccncc3)no2)c(Cl)c1	> 100 µM (inactive)
Clc1ccc(OCc2nc(-c3ccncc3)no2)c(Br)c1	31.2 µM (inactive)
Fc1ccc(CSc2ncnc3ccccc23)cc1	24.2 µM (inactive)
CCCCCCCCNc1ncnc2ccccc12	> 100 µM (inactive)
Fc1ccc(-c2cnc(-c3cccs3)o2)cc1	27.5 µM (inactive)
Clc1ccc(OCc2cnc(Cl)s2)cc1	23.1 µM (inactive)
c1ccc2oc(SCc3nc4ccccc4s3)nc2c1	27.4 µM (inactive)
CCc1ccc(C(=O)Nc2ccc3nc(C)ccc3c2)cc1	14.2 µM
O=C(/C=C/Nc1ccc(F)cc1F)c1ccco1	22.7 µM (inactive)
Fc1ccccc1CSc1ccc(-c2ccco2)nn1	> 100 µM (inactive)
Clc1ccc(Cn2nnc(-c3ccccc3)n2)cc1	20.9 µM (inactive)
Brc1cccc(OCCSc2ncccn2)c1	> 100 µM (inactive)
Cc1nc2ccccc2cc1OCc1ccc(Cl)cc1	> 100 µM (inactive)
Brc1ccc2nc(N3CCCC3)sc2c1	25.8 µM (inactive)
CN(C)CC(O)c1ccc(C=Cc2ccc(Cl)cc2)cc1 (configuration not stated)	18.4 µM
